The target in data set [1] is T1, human serum albumin (HSA) (Homo sapiens, UniProt P02768).
T1 construct: purchased Sigma-Aldrich Chemical Co. (St. Louis, MO, USA)
The experiment in a line: Binding constants of DPH and OG with HSA by increase in the probe's fluorescence (titration with HSA). As to the method:
The slit widths were set at 10 nm for both excitation and emission wavelengths, and a 3 mL quartz cuvette with a 10 mm path length and that was magnetically stirred was used during the measurements. The experiments were performed in pure water or solutions containing 1.0 mol L^−1 NaCl, 10 and 20% (w/w) of 1,4-dioxane. […] After each addition, the mixtures were incubated for 2 min before the fluorescence measurements. Equation (2) was applied to determine the binding constant. […] The association constant (Ka) was calculated as 1/Kd. The same experimental protocol was used to determine the binding constant with OG. In this case, the fixed amount of OG was 5.0 µmol L^−1 and HSA 0–25.0 µmol L^−1. The excitation was set at 305 nm, and the emission was 320 to 450 nm. The non-linear fitting was obtained using the GraphPad Prism version 8.00 for Windows (GraphPad Software, San Diego, CA, USA). (2) F−F0/F∞−F0=L+[P]+Kd−L+[P]+Kd)^2−4[L][P]/2[L]

For data set [2], the target named is T1, human serum albumin (HSA). As to the kind of experiment: Time-resolved fluorescence (average lifetime) of DPH, free and complexed with HSA. As to the method: The measurements were performed using a mini-tau filter-based fluorescence lifetime spectrometer coupled to a Time-Correlated Single Photon Counting (TCSPC) system (Edinburgh Instruments, Livingston, UK). The excitation was performed using a 370 ± 10 nm picosecond pulsed laser, and the emission was using a […] interference filter. The fluorescence decays were fitted using the multi-exponential decay model, Equation (5), and the average lifetime <τ> was calculated using Equation (6). The quality of the fit was assessed by χ^2 values and residuals. […] (5) IT=∑i=1nfie^−T/τi (6) <τ>=∑i=1nfiτi

In data set [3] the target is T1, human serum albumin (HSA). The experiment in a line: Binding of quercetin or rutin with HSA by quenching of the protein's intrinsic fluorescence. Conditions: pure water vs 20% 1,4-dioxane, fit to Equation (3). As to the method:
The interactions between HSA and quercetin or rutin were evaluated by quenching the intrinsic fluorescence of the protein. The excitation was set at 295 nm, and the emission at 310 to 410 nm. […] After each addition of the ligands, the mixtures were incubated for 2 min before the fluorescence measurements. […] Since a 1:1 complex was assumed, n was set as 1. Therefore, Kd and Φ were treated as the fitting parameters in the non-linear least-squares analysis. Before determining the binding constants, the fluorescent intensities were corrected for the inner filter effect (Equation (4)) caused by the attenuation of the excitation and emission signals provoked by the light absorption of the flavonoids. Fcorr and Fobs are the corrected and observed fluorescence. Abex and Abem are the absorptions of the mixture at excitation and emission wavelength, respectively. The absorbance spectra were measured using a Perkin Elmer Lambda 35 UV-visible spectrophotometer (Shelton, CT, USA), and the fluorescence spectra were obtained using a Perkin Elmer LS 55 spectrofluorometer (Shelton, CT, USA). (3) Fratio=1-Φ[([…])/2nP0] (4) Fcorr=Fobs×10^Abex+Abem/2

For data set [4] the following is noted: cited from earlier work.
For data set [5] the following is noted: cited from earlier work. The source holds these as a separate data set.
[6] abbreviates: 1,4-dioxane 0% (pure water), 25 °C, fit to Equation (2), read-out: association constant Ka (converted).
Where [7] appears, read: 1,4-dioxane 20% w/w, 25 °C, fit to Equation (2), read-out: association constant Ka (converted).

Structures are written as SMILES. In brackets after ≈: the same amount, converted by molar mass. Where two headings read alike, the source gives them in different places.

As a reminder, the logP is the decadic logarithm of the partition coefficient of the neutral form, usually between octanol and water.

T1 sequence (P02768 25-609): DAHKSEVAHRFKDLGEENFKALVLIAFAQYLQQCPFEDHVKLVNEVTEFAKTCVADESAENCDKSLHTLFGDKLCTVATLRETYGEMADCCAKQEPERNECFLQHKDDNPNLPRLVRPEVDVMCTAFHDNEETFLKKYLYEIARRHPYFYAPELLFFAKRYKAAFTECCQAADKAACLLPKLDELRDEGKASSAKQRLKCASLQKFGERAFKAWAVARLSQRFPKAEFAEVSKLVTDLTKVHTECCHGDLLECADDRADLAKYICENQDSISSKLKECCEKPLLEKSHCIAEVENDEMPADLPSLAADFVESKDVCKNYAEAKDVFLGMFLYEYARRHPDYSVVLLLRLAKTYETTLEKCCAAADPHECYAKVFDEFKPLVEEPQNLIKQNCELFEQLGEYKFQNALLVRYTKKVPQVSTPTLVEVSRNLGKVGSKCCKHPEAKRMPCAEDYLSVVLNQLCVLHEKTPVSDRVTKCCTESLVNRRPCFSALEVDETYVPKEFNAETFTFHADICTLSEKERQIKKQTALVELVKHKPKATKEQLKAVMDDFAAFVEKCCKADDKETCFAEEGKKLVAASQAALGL

As to `C(=CC=Cc1ccccc1)C=Cc1ccccc1` [DPH, 1,6-diphenyl-1,3,5-hexatriene], the Kd in data set [1] (setting [6]) is 505 nM; in data set [1] (1,4-dioxane 10% w/w, 25 °C, fit to Equation (2), read-out: association constant Ka (converted)), 1890 nM; in data set [1] (setting [7]) it was 5880 nM; in data set [1] (Figure 4, printed as (10%) 1,4-dioxane, read-out: Ka (means and SD of triplicates) (converted)), 2220 nM; in data set [1] (Figure 4, printed as (20%) 1,4-dioxane, read-out: Ka (means and SD of triplicates) (converted)) it was 485 nM; in data set [1] (NaCl 1.0 mol L^−1 (dielectric constant 69.3), read-out: binding constant Ka (converted)), 4350 nM. The Kd in data set [1] (pure water (dielectric constant 80.3), NaCl comparison experiment, read-out: binding constant Ka (converted)) was 1010 nM. Further, the “HSA concentration needed to reach saturation” value stood at 10 µM in data set [1] (1,4-dioxane (20%)) and 2.0 µM in data set [1] (pure water). In data set [1] (no solvent vs 1,4-dioxane), the “lower HSA concentration at saturation when the solvent was absent” value came out at 5 fold. Further, the average fluorescence lifetime in data set [2] (20% 1,4-dioxane with HSA added) is 7.1 nanoseconds; in data set [2] (20% 1,4-dioxane, no protein) it was 2.6 nanoseconds; in data set [2] (pure 1,4-dioxane), 7.8 nanoseconds.
In the case of `CCCCCCCCOC(=O)c1cc(O)c(O)c(O)c1` [OG, octyl gallate], the Kd in data set [1] (setting [6]) was 192 nM; in data set [1] (setting [7]) it was 4550 nM. Besides, in data set [1] (pure water vs 20% 1,4-dioxane), the “increase of binding constant in pure water compared to 1,4-dioxane” value is recorded as 25 fold.
`O=c1c(O)c(-c2ccc(O)c(O)c2)oc2cc(O)cc(O)c12` [quercetin]: in data set [3], the “effect of 1,4-dioxane on binding strength” value is on record as “decreased”. Moreover, the water solubility in data set [4] is recorded as 60 mg/L (≈ 199 µM). Also, the logP in data set [5] is reported as 0.35.
On to `C[C@@H]1O[C@@H](OC[C@H]2O[C@@H](Oc3c(-c4ccc(O)c(O)c4)oc4cc(O)cc(O)c4c3=O)[C@H](O)[C@@H](O)[C@@H]2O)[C@H](O)[C@H](O)[C@H]1O` [rutin], for which the “effect of 1,4-dioxane on binding strength” value in data set [3] is reported as “not”. Also, in data set [5], the log partition coefficient (logP) is −2.28.

The record behind these values is PMC11640942, “The Role of Medium Polarity in the Efficiency of Albumin Binding with Hydrophobic Ligands: Experimental Studies and a Molecular Dynamics Investigation” (International Journal of Molecular Sciences, 2024).
